Measurements from patent US11208412B2 (DAEGU-GYEONGBUK MEDICAL INNOVATION FOUNDATION, priority 2017, dated 2021).

Target: T1, recombinant LRRK2 kinase (Homo sapiens, UniProt Q5S007)
T1 construct: purchased Signal Chem, Richmond, BC, Canada
Assay: LRRK2 kinase inhibition (Kinase-Glo luminescence)
Assay type: biochemical
Conditions: IC50 grade; 25 μmol/L ATP, LRRKtide, 30° C. 2 hours; read-out: Enzyme activity LRRK2
Method: Upon completion of the reaction, an equal amount of Kinase-Glo (Promega, Madison, Wis.) solution was added thereto, followed by reaction for 40 minutes. A detection solution was added thereto, followed by further reaction at room temperature for 30 minutes. Then, IC50 of kinase was calculated by measuring the amount of luciferase using a microplate ELISA reader (Bio-Tek).

T1 sequence (Q5S007 whole entry): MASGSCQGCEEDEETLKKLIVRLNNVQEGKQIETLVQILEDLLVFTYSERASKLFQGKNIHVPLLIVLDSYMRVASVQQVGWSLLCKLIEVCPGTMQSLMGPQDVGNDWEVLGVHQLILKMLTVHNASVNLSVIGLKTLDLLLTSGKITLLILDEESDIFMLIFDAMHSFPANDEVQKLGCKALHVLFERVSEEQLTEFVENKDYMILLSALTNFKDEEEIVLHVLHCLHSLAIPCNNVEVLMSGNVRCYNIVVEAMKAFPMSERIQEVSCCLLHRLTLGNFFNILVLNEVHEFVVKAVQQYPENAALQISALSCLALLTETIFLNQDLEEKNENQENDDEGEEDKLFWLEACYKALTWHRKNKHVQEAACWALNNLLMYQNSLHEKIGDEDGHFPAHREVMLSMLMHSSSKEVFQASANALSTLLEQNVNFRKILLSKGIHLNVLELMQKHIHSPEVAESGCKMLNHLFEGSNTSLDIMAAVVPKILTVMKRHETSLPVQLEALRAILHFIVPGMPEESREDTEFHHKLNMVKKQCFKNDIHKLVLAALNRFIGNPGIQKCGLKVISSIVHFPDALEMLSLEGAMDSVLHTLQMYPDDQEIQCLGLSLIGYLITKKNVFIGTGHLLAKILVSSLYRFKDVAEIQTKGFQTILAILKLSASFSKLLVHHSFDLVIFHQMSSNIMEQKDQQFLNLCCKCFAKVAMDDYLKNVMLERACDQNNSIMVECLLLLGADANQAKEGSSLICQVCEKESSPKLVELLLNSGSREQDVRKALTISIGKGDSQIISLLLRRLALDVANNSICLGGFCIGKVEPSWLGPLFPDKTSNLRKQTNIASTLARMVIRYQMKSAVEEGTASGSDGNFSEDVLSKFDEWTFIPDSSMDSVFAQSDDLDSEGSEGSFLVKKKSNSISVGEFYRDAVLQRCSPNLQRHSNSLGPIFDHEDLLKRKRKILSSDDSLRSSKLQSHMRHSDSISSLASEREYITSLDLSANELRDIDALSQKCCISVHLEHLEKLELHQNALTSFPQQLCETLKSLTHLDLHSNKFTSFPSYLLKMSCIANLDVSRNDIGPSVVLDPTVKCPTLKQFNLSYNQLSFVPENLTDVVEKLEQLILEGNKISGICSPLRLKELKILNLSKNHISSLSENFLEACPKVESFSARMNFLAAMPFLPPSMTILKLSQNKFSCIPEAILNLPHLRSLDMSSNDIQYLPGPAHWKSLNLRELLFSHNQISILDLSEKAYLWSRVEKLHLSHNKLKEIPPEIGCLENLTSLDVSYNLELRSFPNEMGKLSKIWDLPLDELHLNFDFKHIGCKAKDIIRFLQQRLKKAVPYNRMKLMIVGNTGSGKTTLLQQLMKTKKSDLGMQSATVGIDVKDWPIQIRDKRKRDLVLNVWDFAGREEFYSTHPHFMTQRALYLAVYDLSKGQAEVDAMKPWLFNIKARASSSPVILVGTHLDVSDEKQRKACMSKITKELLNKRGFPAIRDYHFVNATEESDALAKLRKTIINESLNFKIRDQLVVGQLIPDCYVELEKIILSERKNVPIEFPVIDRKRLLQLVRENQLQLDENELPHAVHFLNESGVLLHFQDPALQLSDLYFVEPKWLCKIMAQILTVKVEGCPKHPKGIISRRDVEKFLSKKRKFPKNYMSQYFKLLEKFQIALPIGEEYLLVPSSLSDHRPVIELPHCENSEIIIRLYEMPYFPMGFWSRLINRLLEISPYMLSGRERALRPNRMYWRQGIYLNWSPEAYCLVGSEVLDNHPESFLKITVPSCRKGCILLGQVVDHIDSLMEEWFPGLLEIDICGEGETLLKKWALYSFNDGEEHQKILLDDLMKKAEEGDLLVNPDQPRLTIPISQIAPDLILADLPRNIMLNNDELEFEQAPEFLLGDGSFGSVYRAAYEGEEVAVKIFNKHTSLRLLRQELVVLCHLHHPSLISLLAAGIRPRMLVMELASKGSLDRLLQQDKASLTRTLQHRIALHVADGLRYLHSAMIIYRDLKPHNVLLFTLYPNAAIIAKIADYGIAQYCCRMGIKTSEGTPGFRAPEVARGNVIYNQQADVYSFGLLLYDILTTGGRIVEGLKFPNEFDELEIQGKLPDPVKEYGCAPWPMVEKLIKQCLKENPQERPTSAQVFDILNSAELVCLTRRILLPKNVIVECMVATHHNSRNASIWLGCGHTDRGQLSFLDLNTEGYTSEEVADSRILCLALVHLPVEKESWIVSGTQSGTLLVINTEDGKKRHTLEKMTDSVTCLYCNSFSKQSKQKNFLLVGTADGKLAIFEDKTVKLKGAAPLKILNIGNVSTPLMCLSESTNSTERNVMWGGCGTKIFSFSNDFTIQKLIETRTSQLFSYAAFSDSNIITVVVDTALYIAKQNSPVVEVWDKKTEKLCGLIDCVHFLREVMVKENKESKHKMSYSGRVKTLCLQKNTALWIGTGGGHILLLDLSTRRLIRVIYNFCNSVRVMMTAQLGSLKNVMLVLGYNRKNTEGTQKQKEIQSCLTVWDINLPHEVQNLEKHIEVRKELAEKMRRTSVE

Compound CNc1nc(Nc2cc(F)c(C(=O)N3CCOCC3)cc2OC)nc2[nH]cc(C#N)c12 [Example 10, 2-((5-fluoro-2-methoxy-4-(morpholine-4-carbonyl)phenyl)amino)-4-(methylamino)-7H-pyrrolo[2,3-d]pyrimidine-5-carbonitrile] has an IC50 of less than 0.01 µM.

Work on COc1cc(C(=O)N2CCOCC2)ccc1Nc1nc(OC2CCOC2)c2c(C(F)(F)F)c[nH]c2n1 (stereo not shown) [Example 124, (3-methoxy-4-((4-((tetrahydrofuran-3-yl)oxy)-5-(trifluoromethyl)-7H-pyrrolo[2,3-d]pyrimidine-2-yl)amino)phenyl)(morpholino)methanone] yielded an IC50 of 0.01 to 0.1 µM.

For CCNc1nc(Nc2cnn([C@H]3CCN(C4COC4)C[C@@H]3F)c2)nc2[nH]cc(C#N)c12 [Example 53], the IC50 was less than 0.01 µM.

Compound COc1cc(C(=O)N2CCC(N3CCOCC3)CC2)c(F)cc1Nc1nc(NC2CC2)c2c(C#N)c[nH]c2n1 [Example 19, 4-(cyclopropylamino)-2-((5-fluoro-2-methoxy-4-(4-morpholinopiperidine-1-carbonyl)phenyl)amino)-7H-pyrrolo[2,3-d]pyrimidine-5-carbonitrile] has an IC50 of 0.01 to 0.1 µM.

CCNc1nc(Nc2cc3c(cc2OC)C(=O)N(C)C3)nc2[nH]cc(C#N)c12 [Example 130, 4-(ethylamino)-2-((6-methoxy-2-methyl-1-oxoisoindol-5-yl)amino)-7H-pyrrolo[2,3-d]pyrimidine-5-carbonitrile] gave an IC50 of less than 0.01 µM.

With COc1cc(C(=O)N2CCC(N3CCOCC3)CC2)ccc1Nc1nc(OC(C)C)c2c(C#N)c[nH]c2n1 [Example 91, 4-isoprofoxy-2-((2-methoxy-4-(4-morpholinopiperidine-1-carbonyl)phenyl)amino)-7H-pyrrolo[2,3-d] pyrimidine-5-carbonitrile] the IC50 was less than 0.01 µM.

Work on CC1(Oc2nc(Nc3cnn([C@H]4CCN(C5COC5)C[C@@H]4F)c3)nc3[nH]cc(C#N)c23)CC1 [Example 101, 2-((1-((3S,4S)-3-fluoro-1-(oxetane-3-yl)piperidine-4-yl)-1H-pyrazole-4-yl)amino)-4-(1-methylcyclopropoxy)-7H-pyrrolo[2,3-d]pyrimidine-5-carbonitrile] yielded an IC50 of less than 0.01 µM.

For CCNc1nc(Nc2cc3c(cc2OC)C(=O)N(C)C3)nc2[nH]cc(C(F)(F)F)c12 [Example 133, 5-((4-(ethylamino)-5-(trifluoromethyl)-7H-pyrrolo[2,3-d]pyrimidine-2-yl)amino)-6-methoxy-2-methylisoindolin-1-one], the IC50 was less than 0.01 µM.

Compound CCNc1nc(Nc2cnn(CCOC)c2Cl)nc2[nH]cc(C#N)c12 [Example 62, 2-((5-chloro-1-(2-methoxyethyl)-1H-pyrazole-4-yl)amino)-4-(ethylamino)-7H-pyrrolo[2,3-d]pyrimidine-5-carbonitrile] has an IC50 of less than 0.01 µM.

CNc1nc(Nc2cnn(C(C)C)c2C)nc2[nH]cc(C#N)c12 [Example 31, 6-((1-isopropyl-5-methyl-1H-pyrazole-4-yl)amino)-4-(methylamino)-1H-pyrrolo[2,3-b]pyrimidine-3-carbonitrile] was tested, and the IC50 was less than 0.01 µM.

For Cc1nn(C(C)C)cc1Nc1nc(NC2(C)CC2)c2c(C#N)c[nH]c2n1 [Example 39, 2-((1-isopropyl-3-methyl-1H-pyrazole-4-yl)amino)-4-((1-methylcyclopropyl)amino)-7H-pyrrolo[2,3-d]pyrimidine-5-carbonitrile], the IC50 was less than 0.01 µM.

Compound CNc1nc(Nc2cnn([C@H]3CCN(C4COC4)C[C@@H]3F)c2Cl)nc2[nH]cc(C#N)c12 [Example 50, 2-((5-chloro-1-((3S,4S)-3-fluoro-1-(oxetane-3-yl)piperidine-4-yl)-1H-pyrazole-4-yl)amino)-4-(methylamino)-7H-pyrrolo[2,3-d]pyrimidine-5-carbonitrile] has an IC50 of less than 0.01 µM.

CCNc1nc(Nc2cc(OC)c(OC)c(OC)c2)nc2[nH]cc(C#N)c12 [Example 3, 4-(ethylamino)-2-((3,4,5-trimethoxyphenyl)amino)-7H-pyrrolo[2,3-d]pyrimidine-5-carbonitrile] gave an IC50 of less than 0.01 µM.
